Source: publication PMC9860980, “Pharmacokinetics and Pharmacodynamics (PK/PD) of Corallopyronin A against Methicillin-Resistant Staphylococcus aureus” (Pharmaceutics, 2022)
Where two headings read alike, the source gives them in different places.

Test system: S. aureus strain ATCC 33591 (MRSA-strain)
Protocol: Organ samples were thawed and homogenized using a Polytron tissue homogenizer after addition of 3 mL isotonic sodium chloride solution. First, a calibration curve was prepared by spiking different concentrations of CorA into the respective matrix from CD-1 mice. Caffeine was used as an internal standard. In addition, quality control samples (QCs) were prepared for CorA for every matrix. For PD samples, calibration curve and QCs were prepared for levofloxacin using the same protocol. The following extraction procedure was used: 50 µL of a sample (calibration sample, QCs, PK or PD sample) was extracted with 20 µL of acetic acid in water (10/90 (v/v)) and 30 µL acetonitrile for 5 min at 800 rpm on an Eppendorf MixMate® vortex mixer. Then, samples were spun down for 20 min at 4 °C and 4000 rpm and supernatants were transferred to new Greiner 96-well V-bottom plates. Samples were analyzed using an Agilent 1290 Infinity II HPLC system (Waldbronn, Germany) coupled to an AB Sciex QTrap6500plus mass spectrometer (Darmstadt, Germany). LC conditions were as follows: column: Agilent Zorbax Exlipse Plus C18, 50 × 2.1 mm, 1.8 µm; temperature: 30 °C; injection volume: 5 µL per sample; flow rate: 800 µL/min. Samples were run under buffered conditions: A: 95% water + 5% acetonitrile + 5 mM ammonium acetate + 40 µL/L acetic acid; B: 95% acetonitrile + 5% water + 5 mM ammonium acetate + 40 µL/L acetic acid. The gradient was as follows: 99% A at 0 min, 99% A until 0.1 min, 99–0% A from 0.1 min to 4.0 min, 0% A until 4.5 min. Mass transitions for controls and compounds are depicted in Table S1. Peaks of PK samples were quantified using the calibration curve. The accuracy of the calibration curve was determined using QCs independently prepared on different days. PK parameters were determined using a non-compartmental analysis with PKSolver.
Inocula were prepared as described previously with the modification that isotonic sodium chloride solution was used instead of PBS [25]. For the neutropenic thigh and the neutropenic lung infection model the S. aureus strain ATCC 33591 (MRSA-strain) was used. For the neutropenic lung infection model an inoculum of 2 × 10^9 cfu/mL was used. For the neutropenic thigh infection model an inoculum of 7 × 10^5 cfu/mL was used.
The model was conducted as described previously. In brief, the following groups were used: (1) inoculum control group with terminal endpoint at 2 h post infection to determine baseline inoculum in vivo; (2) vehicle-treated group receiving 20 mg/kg SC tramadol and vehicle (PEG400/PBS (80:20 (v/v)); (3) levofloxacin group 5 mg/kg IP three times a day (TID) (t = 2, 6 and 10 h post infection); (4) CorA 60 mg/kg IP TID (t = 2, 6 and 10 h post infection) and (5) CorA 100 mg/kg IP BID (t = 2 and 6 h post infection). The endpoint for groups no. 2–5 was 24 h post infection. A solution of […].

C/C=C/C/C=C(\C)C(O)CC/C(C)=C/C=C(\C)C(=O)c1c(O)cc([C@H](C)CC/C=C/NC(=O)OC)oc1=O (stereo partly shown) [CorA, Corallopyronin A]
terminal thigh concentrations lower than in the group at 100 mg/kg IP BID (60 mg/kg IP BID (so in the source) vs 100 mg/kg IP BID, thigh): more than 10 fold | terminal level in lung tissue (60 mg/kg IP TID): not detected | bacterial burden in lung tissue (60 mg/kg IP TID, 24 h post infection, secondary seeding, vs vehicle): did not show any effect | bacterial burden in thigh tissue (60 mg/kg IP TID, 24 h post infection, vs vehicle): did not show any effect | terminal level in lung tissue (100 mg/kg IP BID): detected at low levels | terminal liver levels lower than at 60 mg/kg IP TID (100 mg/kg IP BID vs 60 mg/kg IP TID, liver): more than 5 fold | bacterial burden in thigh (100 mg/kg IP BID, 24 h post infection): significant reduction
